Literature values in patent US7186882B2, “Transgenic mouse over-expressing calreticulin (CRT) in vascular smooth muscle cells” (priority 2003, dated 2007).
Where a SMILES comes first, the peptide text is derived from it. Bridges are numbered along the chain shown (N, C = ends).

How the values were obtained:
MMP-2/MMP-9 = MMP-2/MMP-9 inhibitor, values given as illustrative
CRT = conditions: siRNA to nucleotides 1917–1937 of SEQ ID NO. 1; Troussard et al., 2003
[1] = system: intimal hyperplasia after arterial injury; conditions: adult rats, exogenously added CRT; Dai et al., 1997
endothelial cells = conditions: added to the endothelial culture media; Pike et al., 1999

IC50 (MMP-2/MMP-9)	Molecule	other results
240 to 350 nM	O=C(O)[C@@H](Cc1ccccc1)NS(=O)(=O)c1ccc(-c2ccccc2)cc1 [MMP-2/MMP-9 inhibitor I, (2R)-2-[(4-Biphenylylsulfonyl)amino]-3-phenylpropionic Acid]	
10000 nM	CC(C)C[C@@H]1NC(=O)[C@H]([C@@H](C)O)NC(=O)[C@H](Cc2ccccc2)NC(=O)CNC(=O)[C@H](Cc2c[nH]c3ccccc23)NC(=O)[C@H](Cc2cnc[nH]2)NC(=O)[C@H]([C@@H](C)O)NC(=O)[C@H]([C@@H](C)O)NC(=O)[C@@H](N)CSSC[C@@H](C(=O)O)NC1=O [MMP-2/MMP-9 inhibitor III] (H-CTTHWGFTLC-OH; disulfide 1-10)	
17 to 30 nM	O=C(NO)[C@@H](Cc1ccccc1)NS(=O)(=O)c1ccc(-c2ccccc2)cc1 [MMP-2/MMP-9 inhibitor II]	
	siRNA: small interference RNA to CRT mRNA, sense 5′-GCUGAUCGUGCGGCCGGACAA dTT 3′, anti-sense 5′-UUGUCCGGCCGCACGAUCAGC dTT 3′ (sense GCUGAUCGUGCGGCCGGACAATT; antisense UUGUCCGGCCGCACGAUCAGCTT; chemistry not fully specified)	expression of CRT (CRT): significantly diminish the expression of CRT
	CRT: calreticulin, 46 kDa ER protein, exogenously added to vascular cells or vessel lumen (protein, CRT peptide sequence from CRT cDNA, calreticulin, 46 kDa ER protein, exogenously added to vascular cells or vessel lumen) MLLPVPLLLGLLGLAAAEPVVYFKEQFLDGDGWTERWIESKHKSDFGKFVLSSGKFYGDQEKDKGLQTSQDARFYALSARFEPFSNKGQPLVVQFTVKHEQNIDCGGGYVKLFPAGLDQKDMHGDSEYNIMFGPDICGPGTKKVHVIFNYKGKNVLINKDIRCKDDEFTHLYTLIVRPDNTYEVKIDNSQVESGSLEDDWDFLPPKKIKDPDASKPEDWDERAKIDDPTDSKPEDWDKPEHIPDPDAKKPEDWDEEMDGEWEPPVIQNPEYKGEWKPRQIDNPDYKGTWIHPEIDNPEYSPDANIYAYDSFAVLGLDLWQVKSGTIFDNFLITNDEAYAEEFGNETWGVTKTAEKQMKDKQDEEQRLKEEEEEKKRKEEEEAEEDEEDKDDKEDEDEDEEDKDEEEEEAAAGQAKDEL	intimal hyperplasia (restenosis) after arterial injury [1]: reducing intimal hyperplasia; endothelial cell proliferation (endothelial cells): selectively inhibits endothelial cell proliferation
